Data from patent publication US8026342B2, “Compositions and methods for binding sphingosine-1-phosphate” (Lpath, Inc., priority 2006, dated 2011).
Where “and” joins values, the source holds several entries; their conditions need not be identical. Equal entries are not always repeated.

Tests used:
[1] = test system: HT29 tumor; assay: SC HT29 colorectal tumor xenograft; type: in vivo, athymic NCr-nu/nu mice; settings: LT1009 50 mg/kg ip q2d; Avastin 20 mg/kg iv q4d; 5-FU 75 mg/kg ip q4d
Experimental: Nude mice were implanted sc near the right flank with one fragment per mouse of HT29 tumor from an in vivo passage. All treatments were initiated the day when 60 mice in each experiment established tumors ranging in size from approximately 100 to 200 mm^3. There were ten mice per treatment group. […] 75 mg/kg 5-FU and 20 mg/kg Avastin were administered ip and iv at a dosage of 75 mg/kg/dose and 20 mg/kg/dose, respectively, q4d, injected in a volume of 0.1 mL/10 g body weight.
(§1) Animals were observed daily for mortality. Tumor dimensions and body weights were collected twice weekly starting with the first day of treatment and including the day of study termination. When the median tumor in the vehicle-treated control group in each study reached approximately 4,000 mg, the study was terminated. Tumors from each animal were harvested, wet weights were recorded, and tumors were processed for determination of MVD by CD-31 staining. Tumor weights (mg) were calculated using the equation for an ellipsoid sphere (l×w^2)/2=mm^3, where l and w refer to the larger and smaller dimensions collected at each measurement and assuming unit density (1 mm^3=1 mg).

[2] = test system: RPMI 8226 tumor; assay: RPMI 8226 human myeloma tumor xenograft; type: in vivo, CB17 SCID mice; settings: LT1009 50 mg/kg IP Q3D to end; Bortezomib iv Q3D×6
Experimental: Nude mice (CB17 SCID, aged 4-5 weeks, weight 18-22 gm, female mice obtained from Harlan) were injected sc with RPMI 8226 cells harvested from tissue culture (˜1×10^7 cells/mouse). When tumors grew to approximately 100 mm^3 in size, animals were pair-matched by tumor size into treatment and control groups (10 mice per group). Initial dosing began Day 1 following pair-matching. Animals in all groups were dosed by weight (0.01 ml per gram; 10 ml/kg). […] Bortezomib was administered by intravenous injection via tail vein once every three days for six treatments (Q3D×6).
Individual and group mean tumor volumes±SEM are recorded twice weekly until study completion beginning Day 1. Final mean tumor volume±SEM for each group are reported at study completion; animals experiencing partial or complete tumor regressions or animals experiencing technical or drug-related deaths are censored from these calculations.

[3] = test system: experimental autoimmune encephalomyelitis; settings: 0.1 mg/kg p.o. or higher doses; cited from earlier work
[4] = test system: peripheral lymphocytes; settings: single oral dose; cited from earlier work
[5] = test system: COLO205 tumor; assay: SC COLO205 colorectal tumor xenograft; type: in vivo, nude NCr (nu/nu) mice; settings: LT1009 50 mg/kg ip q3d; Avastin 40 mg/kg iv q7d; Paclitaxel 15 mg/kg iv q1d×5
Experimental: Nude mice were implanted sc near the right flank with one fragment per mouse of COLO 205 tumor from an in vivo passage. All treatments were initiated the day when 60 mice in each experiment established tumors ranging in size from approximately 100 to 200 mm3. […] Avastin was administered iv at a dosage of 40 mg/kg/dose on a q7d schedule, injected in a volume of 0.1 mL/20 g body weight. Paclitaxel (positive control), was administered iv at a dosage of 15 mg/kg/dose on a q1d×5 schedule, injected in a volume of 0.1 mL/10 g body weight.
as §1, with “recorded,” for “recorded, and”, “microvascular densities (MVD)” for “MVD”

[6] = test system: DU145 tumor; assay: SC DU145 prostate tumor xenograft; type: in vivo, nude NCr (nu/nu) mice; settings: LT1009 50 mg/kg ip q2d; Avastin 20 mg/kg q4d; Paclitaxel 7.5 mg/kg q1d×5
Experimental: Nude mice were implanted sc near the right flank with one fragment per mouse of DU145 tumor from an in vivo passage. All treatments were initiated the day when 60 mice in each experiment established tumors ranging in size from approximately 100 to 200 mm^3. […] Paclitaxel and Avastin were administered iv and ip at a dosage of 7.5 mg/kg/dose and 20 mg/kg/dose, q1d×5 and q4d, respectively, injected in a volume of 0.1 mL/10 g body weight.
During the course of the study tumor growth was monitored by measuring the sc tumors on three axes and calculating the volume. At the end of the study final tumor weights and volumes were determined and then the mice were sacrificed, the tumors harvested. Microvascular densities (MVD) of the tumors were then determined by CD-31 staining.

[7] = test system: HUVECs; assay: HUVEC Matrigel chemoinvasion (migration) assay; type: cell-based, human; settings: 0.1-1 μM S1P
Experimental: FIG. 5 has two panels, A and B. In panel A, S1P is shown to promote neovascularization through induction of HUVECs tube formation and migration, which is reduced by SPHINGOMAB. […] The number of cells that migrated to the Matrigel membrane were counted in five independent fields.
Experiments were performed as described by Visentin et al. (Cancer Cell 2006 March; 9(3):225-38).

[8] = test system: Matrigel plug neovascularization; assay: In vivo Matrigel plug assay for neovascularization (S1P, VEGF, bFGF); set-up: species or system mice; settings: Matrigel with 1 μM S1P
Experimental: Based on in vivo studies showing that S1P increased endothelial capillary growth into subcutaneously implanted Matrigel plugs, we speculated that SPHINGOMAB could reduce de novo BV formation in vivo. To investigate this, we employed the in vivo Matrigel Plug assay for neovascularization. In one set of experiments, Matrigel was supplemented with either 1 μM S1P, 0.5 μg/mL bFGF or 1 μg/mL VEGF and then […]. into mice (n=4). After 10 days, the mice were heparinized and injected with the fluorescent lectin, Isolectin B4-FITC, which binds to adhesion molecules expressed by vascular EC that form the growing BVs. The plugs were then excised, frozen in OCT, sectioned and viewed for FITC-stained BVs.
Sections of the plugs were then stained with hemotoxyln & eosin for evaluation of EC infiltration (FIG. 6B). The infiltration of ECs is a critical step in neo-vascularization. […] Cell infiltration is presumed to be ECs although we recognize that other cell types such as immune cells may also be stained.
Endogenous S1P from the blood and surrounding tissue could supply a wound with pro-angiogenic stimuli. The ability of SPHINGOMAB to reduce endogenous S1P in a wound was investigated. Optimally stimulated plugs (Matrigel supplemented with 0.5 μg/mL bFGF or […] VEGF) were implanted into mice. Mice received i.p. injections of 25 mg/kg SPHINGOMAB or saline every 48 hrs starting 1 day prior to Matrigel implantation. Each treatment group (Matrigel, Matrigel plus GF or Matrigel plus GF and administered SPHINGOMAB) consisted of a minimum of 6 mice. After 10 days, the mice were treated with heparin, injected with Isolectin B4-FITC, the plugs excised, embedded in OCT freezing medium and sectioned.

[9] = test system: human retinal pigmented epithelial cells; assay: alpha-SMA expression (myofibroblast transformation) in retinal pigmented epithelial cells; type: cell-based
Text: (§2) In many of these disorders, circulating growth factors and chemokines promote the transformation of normal ocular cells into fibrocontractile, scar tissue-producing cells that have been termed “myofibroblasts”. Normally, myofibroblasts are responsible for tissue repair as part of the wound healing response following injury. However altered number and function of myofibroblasts are implicated in diseases characterized by pathological scar tissue formation in the liver, skin, lung, kidney, heart and eyes. In the eye, transformation of retinal pigmented epithelial (RPE) cells to a myofibroblast phenotype is linked to formation of fibro-contractile membranes which cause retinal detachment and subsequent vision impairment. In addition, myofibroblast transformation of ocular fibroblasts can result in abnormal scar tissue production after eye injury leading to subsequent vision loss. Although many of the circulating protein factors in the eye that promote myofibroblast formation have been identified, nothing is known regarding the role of lysolipids such as S1P in this process. Therefore, we examined the effects of S1P on myofibroblast transformation of several human ocular cell lines.
In these experiments, the ability of S1P to promote α-SMA expression differed in a concentration dependent manner between the retinal pigmented epithelial cells and conjunctiva fibroblasts. […]

[10] = test system: human conjunctiva fibroblasts; assay: alpha-SMA and PAI-1 expression in conjunctiva fibroblasts; type: cell-based
Text: as §2
In these experiments, the ability of S1P to promote α-SMA expression differed in a concentration dependent manner between the retinal pigmented epithelial cells and conjunctiva fibroblasts. […] This difference is believed to result from increased S1P receptor expression in the epithelial cells compared to the fibroblasts. Due to increased S1P receptor expression levels, retinal pigmented epithelial cells are likely more sensitive to S1P at low concentrations. In contrast, at high S1P levels the receptors become […] or possibly even internalized leading to decreased stimulation by S1P.
Collagen is one of the primary structural proteins that supports all tissues in the body and is one of the main components of scar tissue. In the non-pathological setting, total collagen content within tissue is maintained via a balance between collagen production by fibroblasts and degradation by certain enzymes. […]

[11] = test system: exudative AMD; settings: 2 year MARINA trial and 1 year ANCHOR trial; cited from earlier work

## O=c1[nH]cc(F)c(=O)[nH]1 [5-FU, 5-fluorouracil]
[1]
  % Reduction compared to Vehicle-Treated Mice: 28%
  Final Tumor Weights: 1963.71 mg

## CC(C)C[C@H](NC(=O)[C@H](Cc1ccccc1)NC(=O)c1cnccn1)B(O)O [Bortezomib, reference compound]
[2]
  % Reduction compared to Vehicle-Treated Mice: 20%
  Final Tumor Weights: 1664 mg

## CCCCCCCCc1ccc(CCC(N)(CO)CO)cc1.Cl [FTY720, 2-amino-2-(2-[4-octylphenyl]ethyl)-1,3-propanediol hydrochloride]
[3]
  paralysis in EAE: almost completely prevents paralysis
[4]
  reduction of peripheral lymphocyte counts: 30-70%

## CC(=O)O[C@H]1C(=O)[C@@]2(C)[C@H]([C@H](OC(=O)c3ccccc3)[C@]3(O)C[C@H](OC(=O)[C@H](O)[C@@H](NC(=O)c4ccccc4)c4ccccc4)C(C)=C1C3(C)C)[C@]1(OC(C)=O)CO[C@@H]1C[C@@H]2O [Paclitaxel]
[5]
  % Reduction compared to Vehicle-Treated Mice: 100%
  Final Tumor Weights: 0 mg
[6]
  % Reduction compared to Vehicle-Treated Mice: 80%
  Final Tumor Weights: 539 mg

## CCCCCCCCCCCCC/C=C/[C@@H](O)[C@@H](N)COP(=O)(O)O [S1P, sphingosine-1-phosphate]
[7]
  stimulation of HUVEC migration over non-treated HUVECs: 2-2.5 fold
[8]
  increase of EC infiltration in comparison to Matrigel only plugs: 3 fold
[9]
  S1P concentration at which a significant increase in α-SMA expression was observed: 0.001 µM
  production of α-Smooth muscle actin (α-SMA): stimulates production
[10]
  PAI-1 expression: stimulates the PAI-1 expression in a dose-dependent manner
  S1P concentration at which a significant increase in α-SMA expression was observed: 10 µM
  production of α-Smooth muscle actin (α-SMA): stimulates production

## Avastin: anti-angiogenic drug, bevacizumab (Avastin, Genentech)
[5]
  % Reduction compared to Vehicle-Treated Mice: 35%
  Final Tumor Weights: 1967.90 mg
[1]
  % Reduction compared to Vehicle-Treated Mice: 30%
  Final Tumor Weights: 1927.44 mg
[6]
  % Reduction compared to Vehicle-Treated Mice: 80% and 79%
  Final Tumor Weights: 578 mg

B1: RANIBIZUMAB: antibody fragment inhibiting all isoforms of VEGF-A (antibody, chains of the INN, looked up, V domains shown)
VH: EVQLVESGGGLVQPGGSLRLSCAASGYDFTHYGMNWVRQAPGKGLEWVGWINTYTGEPTYAADFKRRFTFSLDTSKSTAYLQMNSLRAEDTAVYYCAKYPYYYGTSHWYFDVWGQGTLVTVSS
VL: DIQLTQSPSSLSASVGDRVTITCSASQDISNYLNWYQQKPGKAPKVLIYFTSSLHSGVPSRFSGSGSGTDFTLTISSLQPEDFATYYCQQYSTVPWTFGQGTKVEIK
modifications: Fab
[11]
  patients achieving some visual gain: approximately 40%
